Assay results published in US11033535B2, “Oxadiazoles and thiadiazoles as TGF-β inhibitors” (Southern Research Institute, priority 2017, dated 2021).
Like-named read-outs stand apart in the source and are kept apart here.

Test: Pharmacokinetic evaluation following a single oral and intravenous administration
Assay type: in vivo, CD1 mouse
Protocol: A NMP stock solution was prepared by adding 1.136 mL of NMP to 5.68 mg of compound no. 42140 with vortexing and sonification, to obtain a solution with a concentration at 5 mg/mL of 42140:01. Next, to prepare an intravenous formulation, 0.100 mL of the 5 mg/mL stock solution was placed in a new vial. 0.100 mL of NMP and 0.400 mL of PEG400 were added with vortexing and sonification, followed by addition of 0.400 mL of saline with vortexing and sonification. […] 42140:01. Alternatively, to prepare an oral formulation, 0.200 mL of the 5 mg/mL stock solution was placed in a new vial. 0.400 mL of PEG400 was added with vortexing and sonification, followed by addition of 0.400 mL of saline with vortexing and sonifiction. […] 42140:01.
(§1) Briefly, the desired serial concentrations of working solutions were achieved by diluting a stock solution of the compound with 100% acetonitrile. 3 μL of working solutions (5, 10, 20, 50, 100, 500, 1000, 5000, 10000 ng/mL) were added to 30 μL of the blank CD1 mouse plasma to achieve calibration standards of 0.5-1000 ng/mL (0.5, 1, 2, 5, 10, 50, 100, 500, 1000 ng/mL) in a total volume of 33 μL. Five quality control samples at 1 ng/mL, 2 ng/mL, 5 ng/mL, 50 ng/mL and 800 ng/mL for plasma were prepared independently of those used for the calibration curves. These QC samples were prepared on the day of analysis in the same way as calibration standards.
Next, 33 μL standards, 33 μL QC samples, and 33 μL unknown samples (30 μL plasma with 3 μL blank solution) were added to 200 μL of acetonitrile containing IS mixture for precipitating protein, respectively. Then the samples were vortexed for 30 s. After centrifugation at 4 degree Celsius, 4000 rpm for 15 min, 3 μL of supernatant was injected into the LC/MS/MS system for quantitative analysis.
HPLC analysis was performed using 100% water with 0.1% formic acid (Solution A) and 100% acetonitrile with 0.1% formic acid (Solution B) with a flow rate of 0.6 mL/min.
A NMP stock solution was prepared by adding 2.092 mL of NMP to 10.46 mg of […] with vortexing and sonification, to obtain a solution with a concentration at 5 mg/mL of […]. Next, to prepare an intravenous formulation, 0.100 mL of the 5 mg/mL stock solution was placed in a new vial. 0.100 mL of NMP and 0.400 mL of PEG400 were added with vortexing and sonification, followed by addition of 0.400 mL of saline with vortexing and sonification. […] 42320:01. Alternatively, to prepare an oral formulation, 0.200 mL of the 5 mg/mL stock solution was placed in a new vial. 0.400 mL of PEG400 was added with vortexing and sonification, followed by addition of 0.400 mL of saline with vortexing and sonifiction. […] 42320:01.
as §1, with “50 ng/mL,” for “50 ng/mL”

[1] = CD1, mouse, plasma, po, 5 mg/kg, Table 11, PO Dose: 5 mg/kg, Mouse 4, read-out: Concentration
[2] = CD1, mouse, plasma, po, 5 mg/kg, Table 11, PO Dose: 5 mg/kg, Mouse 5, read-out: Concentration
[3] = CD1, mouse, plasma, po, 5 mg/kg, Table 11, PO Dose: 5 mg/kg, Mouse 6, read-out: Concentration
[4] = CD1, mouse, plasma, po, 5 mg/kg, Table 11, PO Dose: 5 mg/kg, mean, read-out: Concentration, Mean
[5] = Table 10, IV Dose: 1 mg/kg, Mouse 1
[6] = Table 10, IV Dose: 1 mg/kg, Mouse 2
[7] = Table 10, IV Dose: 1 mg/kg, Mouse 3
[8] = Table 10, IV Dose: 1 mg/kg, mean
[9] = Table 12, PO Dose: 5 mg/kg, Mouse 4
[10] = Table 12, PO Dose: 5 mg/kg, Mouse 5
[11] = Table 12, PO Dose: 5 mg/kg, Mouse 6
[12] = Table 12, PO Dose: 5 mg/kg, mean

`CC(=O)N[C@@H](Cc1ccc(CN(C)C)cc1)c1nnc(-c2cccc(OC(F)(F)F)c2)s1` [Compound 42320, N-(2-(4-((dimethylamino)methyl)phenyl)-1-(5-(3-(trifluoromethoxy)phenyl)-1,3,4-thiadiazol-2-yl)ethyl)acetamide] gave a concentration at 2 h [1] of 165 ng/mL, a concentration at 2 h [2] of 100 ng/mL and a concentration at 2 h [3] of 105 ng/mL. It also gave a concentration at 2 h [4] of 123 ng/mL, a concentration at 4 h [1] of 88.4 ng/mL and a concentration at 4 h [2] of 64.2 ng/mL. It also gave a concentration at 4 h [3] of 77.7 ng/mL, a concentration at 4 h [4] of 76.8 ng/mL and a concentration at 8 h [1] of 49 ng/mL. It also gave a concentration at 8 h [2] of 37.2 ng/mL, a concentration at 8 h [3] of 37.4 ng/mL and a concentration at 8 h [4] of 41.2 ng/mL. For the same compound, the concentration at 24 h (CD1, mouse, plasma, po, 5 mg/kg, Table 11, PO Dose: 5 mg/kg, 24 h, Mouse 6, read-out: Concentration) was 3.26 ng/mL, the AUC(0-inf) (CD1, mouse, plasma, po, 5 mg/kg, Table 12, PO Dose: 5 mg/kg, Mouse 4, read-out: AUCInf) was 1110 ng·h/mL and the AUC(0-t) (CD1, mouse, plasma, po, 5 mg/kg, Table 12, PO Dose: 5 mg/kg, Mouse 4, read-out: AUClast) was 856 ng·h/mL. It also gave a Cmax (CD1, mouse, plasma, po, 5 mg/kg, Table 12, PO Dose: 5 mg/kg, Mouse 4, read-out: Cmax) of 201 ng/mL, an MRT inf (CD1, mouse, plasma, po, 5 mg/kg, Table 12, PO Dose: 5 mg/kg, Mouse 4, read-out: MRTInf—obs) of 5.27 h and a half-life (CD1, mouse, plasma, po, 5 mg/kg, Table 12, PO Dose: 5 mg/kg, Mouse 4, read-out: T1/2 (converted)) of 214 min. For the same compound, the AUC(0-inf) (CD1, mouse, plasma, po, 5 mg/kg, Table 12, PO Dose: 5 mg/kg, Mouse 5, read-out: AUCInf) was 801 ng·h/mL, the AUC(0-t) (CD1, mouse, plasma, po, 5 mg/kg, Table 12, PO Dose: 5 mg/kg, Mouse 5, read-out: AUClast) was 569 ng·h/mL and the Cmax (CD1, mouse, plasma, po, 5 mg/kg, Table 12, PO Dose: 5 mg/kg, Mouse 5, read-out: Cmax) was 121 ng/mL. For the same compound, the MRT inf (CD1, mouse, plasma, po, 5 mg/kg, Table 12, PO Dose: 5 mg/kg, Mouse 5, read-out: MRTInf—obs) was 6.33 h, the half-life (CD1, mouse, plasma, po, 5 mg/kg, Table 12, PO Dose: 5 mg/kg, Mouse 5, read-out: T1/2 (converted)) was 259 min and the AUC(0-inf) (CD1, mouse, plasma, po, 5 mg/kg, Table 12, PO Dose: 5 mg/kg, Mouse 6, read-out: AUCInf) was 961 ng·h/mL. It also gave an AUC(0-t) (CD1, mouse, plasma, po, 5 mg/kg, Table 12, PO Dose: 5 mg/kg, Mouse 6, read-out: AUClast) of 940 ng·h/mL, a Cmax (CD1, mouse, plasma, po, 5 mg/kg, Table 12, PO Dose: 5 mg/kg, Mouse 6, read-out: Cmax) of 122 ng/mL and an MRT inf (CD1, mouse, plasma, po, 5 mg/kg, Table 12, PO Dose: 5 mg/kg, Mouse 6, read-out: MRTInf—obs) of 5.84 h. It also gave a half-life (CD1, mouse, plasma, po, 5 mg/kg, Table 12, PO Dose: 5 mg/kg, Mouse 6, read-out: T1/2 (converted)) of 265 min, an AUC(0-inf) (CD1, mouse, plasma, po, 5 mg/kg, Table 12, PO Dose: 5 mg/kg, mean, read-out: AUCInf, Mean) of 956 ng·h/mL and an AUC(0-t) (CD1, mouse, plasma, po, 5 mg/kg, Table 12, PO Dose: 5 mg/kg, mean, read-out: AUClast, Mean) of 788 ng·h/mL. It also gave a Cmax (CD1, mouse, plasma, po, 5 mg/kg, Table 12, PO Dose: 5 mg/kg, mean, read-out: Cmax, Mean) of 148 ng/mL, an MRT inf (CD1, mouse, plasma, po, 5 mg/kg, Table 12, PO Dose: 5 mg/kg, mean, read-out: MRTInf—obs, Mean) of 5.81 h and a half-life (CD1, mouse, plasma, po, 5 mg/kg, Table 12, PO Dose: 5 mg/kg, mean, read-out: T1/2, Mean (converted)) of 246 min. The Tmax (CD1, plasma, Table 12, PO Dose: 5 mg/kg, Mouse 4) was 30 min, the Concentration (Table 9, IV Dose: 1 mg/kg, 24 h, Mouse 1) was “BLOQ” and the Concentration (Table 9, IV Dose: 1 mg/kg, 24 h, Mouse 2) was “BLOQ”. The Concentration (Table 9, IV Dose: 1 mg/kg, 24 h, Mouse 3) was “BLOQ”, the AUClast/D [5] was 169 h·ng/mL per mg/kg and the “AUC—% Extrap—obs” value [5] was 7.32%. The Cl_obs [5] was 91.3 mL/min/kg, the AUClast/D [6] was 153 h·ng/mL per mg/kg and the “AUC—% Extrap—obs” value [6] was 7.31%. For the same compound, the Cl_obs [6] was 101 mL/min/kg, the AUClast/D [7] was 172 h·ng/mL per mg/kg and the “AUC—% Extrap—obs” value [7] was 10.6%. The Cl_obs [7] was 86.3 mL/min/kg, the AUClast/D, Mean [8] was 165 h·ng/mL per mg/kg and the “AUC—% Extrap—obs, Mean” value [8] was 8.4%. The “C0, Mean” value [8] was 100 ng/mL, the “Cl_obs, Mean” value [8] was 93 mL/min/kg and the Concentration (Table 11, PO Dose: 5 mg/kg, 24 h, Mouse 4) was “BLOQ”. For the same compound, the Concentration (Table 11, PO Dose: 5 mg/kg, 24 h, Mouse 5) was “BLOQ”, the AUClast/D [9] was 171 h·ng/mL per mg/kg and the “AUC—% Extrap—obs” value [9] was 22.7%. The F [9] was 104%, the AUClast/D [10] was 114 h·ng/mL per mg/kg and the “AUC—% Extrap—obs” value [10] was 28.9%. The F [10] was 69.0%, the AUClast/D [11] was 188 h·ng/mL per mg/kg and the “AUC—% Extrap—obs” value [11] was 2.16%. The F [11] was 107%, the AUClast/D, Mean [12] was 158 h·ng/mL per mg/kg and the “AUC—% Extrap—obs, Mean” value [12] was 17.9%. For the same compound, the “F, Mean” value [12] was 93%.
